Results taken from patent US20220185811A1, “FGFR4 KINASE INHIBITOR AND PREPARATION METHOD THEREFOR AND USE THEREOF” (SHOUYAO HOLDINGS (BEIJING) CO., LTD., priority 2019, published 2022).
Counter-ions that a name gives are not always drawn.

Key:
[1] = molecular target: FGFR-4 kinase (Homo sapiens, UniProt P22455); experiment: FGFR-4 kinase activity, homogeneous time-resolved fluorescence (HTRF) method; format: biochemical; settings: Table 1; ATP 25 μM, FGFR-4 kinase 1 nM; read-out: FGFR4 IC50
Experimental: 1. In vitro determination of the protein activity of compounds: The FGFR-4 kinase activity detection platform was established by the homogeneous time-resolved fluorescence (HTRF) method, and the activity of the compound was determined. 1000 μM compounds were subjected to 3-fold gradient dilution in 100% DMSO 11 times (12 concentrations in total), 4 μL diluent from each concentration was added to 96 μL of reaction buffer (50 mM HEPES, pH 7.4, 5 mM MnCl2, 0.1 mM NaVO3, 0.001% Tween-20, 0.01% BAS, 1 mM DTT) and mixed well, as a 4* compound (final concentration of 0.017 nM-1000 nM) for later use. 2 * FGFR-4 kinase (final concentration of 1 nM) was formulated using reaction buffer and 4*substrate (ATP+TK peptide) (TK peptide, HTRF® KinEASETM-TK, purchased from Cisbio, TK peptide, final concentration of 1 μM, ATP final concentration of 25 μ M) was formulated using reaction buffer. 2.5 μL of 4*compound and then 5 μL of 2 * FGFR-4 kinase were added to a 384-well plate (OptiPlate-384, purchased from PerkinElmer), the mixture was mixed by centrifugation, and 2.5 μL of 4 * substrate mixture was added to start the reaction (total reaction volume of 10 µL). The 384-well plate was placed in an incubator 23° C. and stirred for 60 min before the reaction was stopped by the addition of 5 μL of Eu^3+cryptate-labeled anti-phosphotyrosine antibody (TRF® KinEASE™-TK, purchased from Cisbio) and 5 μL of Streptavidin-XL-665 (HTRF® KinEASE™-TK, purchased from Cisbio). After incubation in the incubator for 1 h, fluorescence values (excitation at 320 nm, detecting emitted light at 665 nm and 620 nm, and a ratio of the two as enzyme activity) were read on Envision (purchased from PerkinElmer). The enzyme activity of each compound was measured at 12 concentrations, and the ICso value of the compound was calculated using GraphPad Prism 5.0 software.
The FGFR-4 kinase activity detection platform was established by homogeneous time-resolved fluorescence (HTRF) method, and the activity of compound was determined. 1000 μM compounds were subjected to 3-fold gradient dilution in 100% DMSO 11 times (12 concentrations in total), 4 μL of diluent from each concentration was added to 96 μL of reaction buffer (50 mM HEPES, pH 7.4, 5 mM MnCl2, 0.1 mM NaVO3, 0.001% Tween-20, 0.01% BAS, 1 mM DTT) and mixed well, as a 4* compound (final concentration of 0.017 nM-1000 nM) for later use. 2 * FGFR-4 kinase (final concentration of 1 nM) was formulated using reaction buffer and 4*substrate (ATP+TK peptide)(TK peptide, HTRF® KinEASE™-TK, purchased from Cisbio, TK peptide, final concentration of 1 μM, ATP final concentration of 25 μM) was formulated using reaction buffer. 2.5 μL of 4 * compound and then 5 μL of 2 * FGFR-4 kinase were added to a 384-well plate (OptiPlate-384, purchased from PerkinElmer), the mixture was mixed by centrifugation, and 2.5 μL of 4 * substrate mixture was added to start the reaction (total reaction volume of 10 μL). The 384-well plate was placed in an incubator 23° C. and stirred for 60 min before the reaction was stopped by the addition of 5 μL of Eu^3+cryptate-labled anti-phosphotyrosine antibody (TRF® KinEASE™-TK, purchased from Cisbio) and 5 μL of Streptavidin-XL-665 (HTRF® KinEASE™-TK, purchased from Cisbio). After incubation in the incubator for 1 h, fluorescence values (excitation at 320 nm, detecting emitted light at 665 nm and 620 nm, and a ratio of the two as enzyme activity) were read on Envision (purchased from PerkinElmer). The enzyme activity of each compopund was measured at 12 concentrations, and the ICso value of the compound was calculated using GraphPad prism 5.0 software.

[2] = tested on: Human hepatoma cells Hep3b; experiment: Cell proliferation inhibition, Cell Titer-Glo; format: cell-based; settings: Hep3B, 72 h, Table 1, 3 days incubation
Experimental: 2. Determination of cell proliferation activity of compounds:
Cell Titer-Glo ® detection reagent from Promega was used to establish the suspension cell proliferation inhibition screening method. Human hepatoma cells Hep3b (Xiehe Cell Research Center) were cultured in 25 cm^2 or 75 cm^2 plastic tissue culture flasks (Corning®) filled with MEM (Gibco®) medium supplemented with 10% fetal bovine serum (Hyclone®) under 37° C., 95% air and 5% CO2, and subcultured 2-3 times a week.
(§1) Hep3b cells were seeded in a 96-well cell culture plate (Corning®) at a density of 3×10^3 cells/well, […], and cultured under 37° C., 95% air, and 5% CO2. After 24 h the test compound was added: 10 mM compounds (dissolved in DMSO) were subjected to 3-fold gradient dilution in DMSO , […] of diluent from each concentration was added to […] of serum-free medium, and finally […] of compound diluted in the medium was added to the plate seeded with cells. The final concentration of DMSO in the cell culture medium was 0.1% and the final concentration of the test compound was 0.3 nM-[…]. The above cells were incubated for 3 days under 37° C.
After 3 days, the cell viability assay was performed by the Cell Titer-Glo (Promega) kit, and finally, the inhibitory concentration 50% of the compound on cell proliferation, i.e. the IC 50 value, was calculated by the GraphPad Prism 5.0 program.
as §1, with “DMSO,” for “DMSO ,”, “finally,” for “finally”, “of” for “of the”
After 3 days, the cell viability assay was performed by the Cell Titer-Glo (Promega) kit, and finally the inhibitory concentration 50% of the compound on cell proliferation, i.e. the IC 50 value, was calculated by the GraphPad Prism 5.0 program.

[3] = Pharmacokinetics in male SD rats, single intragastric administration; format: in vivo; settings: rat, po, 5 mg/kg suspension, plasma, first PK table
Experimental: (§2) Male SD rats (Beijing Vital River Laboratory Animal Technology Co., Ltd.) were divided into groups of 3 rats each. The rats were subjected to 5 mg/kg suspension of the test sample by single intragastric administration, respectively. Animals were fasted overnight prior to the experiment from 10 h before dosing to 4 h after dosing. Blood was collected 0.25, 0.5, 1, 2, 4, 6, 8, and 24 h after administration. After isoflurane anesthesia using a small animal anesthesia machine, 0.3 mL of whole blood samples was collected from the fundus venous plexus, placed in a heparin anticoagulant tube, and were centrifuged at 4° C., 4000 rpm for 5 min, plasma was transferred to the centrifuge tube, and stored at −80° C. until analysis. Samples in the plasma were extracted using protein precipitation and the extracts were analyzed by LC/MS/MS.
as §2, with “taken through” for “collected from”, “-80°” for “−80°”

FGFR-4 kinase, sequence (P22455 22-802): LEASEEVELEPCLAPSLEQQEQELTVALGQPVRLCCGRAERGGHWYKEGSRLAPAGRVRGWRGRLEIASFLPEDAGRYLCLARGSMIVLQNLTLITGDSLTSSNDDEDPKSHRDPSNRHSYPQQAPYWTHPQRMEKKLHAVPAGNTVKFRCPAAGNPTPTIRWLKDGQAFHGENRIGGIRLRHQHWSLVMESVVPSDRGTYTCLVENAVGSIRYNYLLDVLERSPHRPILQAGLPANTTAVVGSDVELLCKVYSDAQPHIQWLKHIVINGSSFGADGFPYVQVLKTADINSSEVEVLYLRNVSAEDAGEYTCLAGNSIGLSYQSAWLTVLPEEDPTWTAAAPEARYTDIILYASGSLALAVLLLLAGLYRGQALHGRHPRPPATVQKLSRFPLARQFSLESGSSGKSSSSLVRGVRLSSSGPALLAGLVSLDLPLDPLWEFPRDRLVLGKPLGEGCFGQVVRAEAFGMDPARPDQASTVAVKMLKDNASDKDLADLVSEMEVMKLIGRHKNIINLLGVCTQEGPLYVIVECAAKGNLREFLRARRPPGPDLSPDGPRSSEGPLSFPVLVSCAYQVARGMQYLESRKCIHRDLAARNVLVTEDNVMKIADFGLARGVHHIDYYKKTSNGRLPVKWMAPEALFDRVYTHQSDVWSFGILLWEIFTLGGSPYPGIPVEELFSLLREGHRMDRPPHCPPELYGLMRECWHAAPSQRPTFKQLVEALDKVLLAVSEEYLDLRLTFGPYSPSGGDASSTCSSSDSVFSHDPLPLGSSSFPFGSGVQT

SMILES | IC50 [1] | IC50 [2] | further results
C=CC(=O)Nc1cc(-c2cc3c(cn2)cc(-c2c(Cl)c(OC)cc(OC)c2Cl)c2nccn23)c(OC)cc1N1CC2COCC2C1 (stereo not shown) [Example 4, N-(5-(4-(2,6-dichloro-3,5-dimethoxyphenyl)imidazo[1,2-a][1,6]naphthyridin-8-yl)-4-methoxy-2-(tetrahydro-1H-furo[3,4-c]pyrrol-5(3H)-yl)phenyl)acrylamide] | 2.25 nM |  | 
C=CC(=O)Nc1cc(-c2cc3c(cn2)cc(-c2c(Cl)c(OC)cc(OC)c2Cl)c2nccn23)c(OC)cc1N1CCOC2(CC2)C1 [Example 5, N-(5-(4-(2,6-dichloro-3,5-dimethoxyphenyl)imidazo[1,2-a][1,6]naphthyridin-8-yl)-4-methoxy-2-(4-oxa-7-azaspiro[2.5]octan-7-yl)phenyl)acrylamide] |  | 20.3 nM | 
C=CC(=O)Nc1cc(-c2cc3c(cn2)cc(-c2c(Cl)c(OC)cc(OC)c2Cl)c2nccn23)c(OC)cc1N1CC2CCC(C1)N2C(C)=O [Example 7, N-(2-(8-acetyl-3,8-diazabicyclo[3 .2.1]octan-3-yl)-5-(4-(2,6-dichloro-3,5-dimethoxyphenyl)imidazo[1,2-a][1,6]naphthyridin-8-yl)-4-methoxyphenyl)acrylamide] | 1.74 nM | 83.6 nM | 
C=CC(=O)Nc1cc(-c2cc3c(cn2)cc(-c2c(Cl)c(OC)cc(OC)c2Cl)c2nccn23)c(OC)cc1N1CCNC2(CC2)C1 [Example 9, N-(5-(4-(2,6-dichloro-3,5-dimethoxyphenyl)imidazo[1,2-a][1,6]naphthyridin-8-yl)-4-methoxy-2-(4,7-diazaspiro[2.5]octan-7-yl)phenyl)acrylamide trifluoroacetate] | 2.43 nM | 74.7 nM | 
C=CC(=O)Nc1cc(-c2cc3c(cn2)cc(-c2c(Cl)c(OC)cc(OC)c2Cl)c2nccn23)c(OC)cc1N1CCN(C(C)=O)C2(CC2)C1 [Example 11, N-(2-(4-acetyl-4,7-diazaspiro[2.5]octan-7-yl)-5-(4-(2,6-dichloro-3,5-dimethoxyphenyl)imidazo[1,2-a][1,6]naphthyridin-8-yl)-4-methoxyphenyl)acrylamide] | 3.82 nM | 68.3 nM | 
CC#CC(=O)Nc1cc(-c2cc3c(cn2)cc(-c2c(Cl)c(OC)cc(OC)c2Cl)c2nccn23)c(OC)cc1N1C[C@@H]2C[C@H]1CO2 [Example 27, N-(2-((1S,4S)-2-oxa-5-azabicyclo[2.2.1]heptan-5-yl)-5-(4-(2,6-dichloro-3,5-dimethoxyphenyl)imidazo[1,2-a][1,6]naphthyridin-8-yl)-4-methoxyphenyl)but-2-ynamide] |  |  | AUC(0-inf) [3]: 1860 ng·h/mL; Cmax [3]: 452 ng/mL; Tmax [3]: 3.33 h; half-life ([3]; read-out: T1/2 (converted)): 2.73 h
C=CC(=O)Nc1cc(-c2cc3c(cn2)cc(-c2c(Cl)c(OC)cc(OC)c2Cl)c2nccn23)c(OC)cc1N1CCO[C@@H](C)C1 [Example 38, (S)-N-(5-(4-(2,6-dichloro-3,5-dimethoxyphenyl)imidazo[1,2-a][1,6]naphthyridin-8-yl)-4-methoxy-2-(2-methylmorpholino)phenyl)acrylamide] | 5.07 nM |  | 

Further lines, with some results ahead:

IC50 [1] | IC50 [2] | SMILES | further results
5.79 nM | 71.7 nM | C=CC(=O)Nc1cc(-c2cc3c(cn2)cc(-c2c(Cl)c(OC)cc(OC)c2Cl)c2nccn23)c(OC)cc1N1CCC2(CC1)CCN(C1CC1)CC2 [Example 19, N-(2-(9-cyclopropyl-3,9-diazaspiro[5.5]undecan-3-yl)-5-(4-(2,6-dichloro-3,5-dimethoxyphenyl)imidazo[1,2-a][1,6]naphthyridin-8-yl)-4-methoxyphenyl)acrylamide] | 
2.54 nM |  | C=CC(=O)Nc1cc(-c2cc3c(cn2)cc(-c2c(Cl)c(OC)cc(OC)c2Cl)c2nccn23)c(OC)cc1N1CCC2(COC2)C1 [Example 20, N-(5-(4-(2,6-dichloro-3,5-dimethoxyphenyl)imidazo[1,2-a][1,6]naphthyridin-8-yl)-4-methoxy-2-(2-oxa-6-azaspiro[3.4]octan-6-yl)phenyl)acrylamide] | 
5.61 nM |  | C=CC(=O)Nc1cc(-c2cc3c(cn2)cc(-c2c(Cl)c(OC)cc(OC)c2Cl)c2nccn23)c(OC)cc1N1CCC2(CCN(C)C2)C1 (stereo not shown) [Example 22] | 
3.85 nM | 142 nM | C=CC(=O)Nc1cc(-c2cc3c(cn2)cc(-c2c(Cl)c(OC)cc(OC)c2Cl)c2nccn23)c(OC)cc1N1CCN(C)C2(CC2)C1 [Example 23, N-(5-(4-(2,6-dichloro-3,5-dimethoxyphenyl)imidazo[1,2-a][1,6]naphthyridin-8-yl)-4-methoxy-2-(4-methyl-4,7-diazaspiro[2.5]octan-7-yl)phenyl)acrylamide] | 
